Target: InhA, NADH-dependent enoyl-[Acyl-Carrier-Protein] reductase (Mycobacterium tuberculosis, UniProt P9WGR1)
Experiment: enzyme turnover, NADH oxidation at […] nm
Assay type: biochemical

Sequence of InhA, NADH-dependent enoyl-[Acyl-Carrier-Protein] reductase (P9WGR1 whole entry, looked up): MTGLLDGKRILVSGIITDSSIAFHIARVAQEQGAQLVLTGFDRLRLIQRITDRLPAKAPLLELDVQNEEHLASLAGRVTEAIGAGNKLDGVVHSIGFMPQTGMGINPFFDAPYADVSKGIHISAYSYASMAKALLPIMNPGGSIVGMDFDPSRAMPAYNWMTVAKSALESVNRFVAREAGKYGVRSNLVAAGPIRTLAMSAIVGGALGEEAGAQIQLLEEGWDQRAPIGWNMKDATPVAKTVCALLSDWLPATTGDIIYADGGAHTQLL

With CCCCC/C=C/C(=O)SCCNC(=O)CCNC(=O)[C@H](O)C(C)(C)COP(=O)(O)OP(=O)(O)OC[C@H]1O[C@@H](n2cnc3c(N)ncnc32)[C@H](O)[C@@H]1OP(=O)(O)O [OcCoA, 2-trans-octenoyl-CoA] the “enzyme turnover, NADH oxidation at 340 nm” value was “All three enzymes were catalytically active and oxidized NADH in the presence of the substrate 2-trans-octenoyl-CoA (OcCoA)”.

From article PMC3491834 (EMBO Molecular Medicine, 2012)
